Like-named read-outs stand apart in the source and are kept apart here.
What was measured:
[1] = Shake flask Log D (SFLogD) determination, pH 7.4; assay type: physicochemical; conditions: for logD: shake flask, octan-1-ol / 0.1 M sodium phosphate buffer
Procedure: Shake Flask Log D (SF Log D) Determination:
The Log D determinations were carried out in a similar manner as described by Hay et al. Drug Metabolism and Disposition 37(9), 1864-1870, 2009, the procedure of which is generally described below.
Log D(7.4) Determination. The distribution coefficient of the test compounds between octan-1-ol and 0.1 M sodium phosphate buffer, pH 7.4, was determined by the shake flask methodology in an automated manner. 0.3 mg of compound was dissolved in 300 μL of octan-1-ol and aliquoted in duplicate into a 96-well block. Three hundred microliters of presaturated buffer (2 liters of buffer presaturated with 10 mL of octan-1-ol) was added to the wells, and the solution was vigorously mixed. After centrifugation, the two phases were separated. Ten microliters of a 1:200 dilution of the octan-1-ol layer and 10 μL of a 1:20 dilution of the buffer layer were directly injected onto the high-performance liquid chromatography (HPLC) (for example using an appropriate C18 column, isocratic elution with 90% methanol, 10% water, 2 mM ammonium acetate, and 0.03% formic acid at flow rate of 2 mL/min). The peak areas were corrected for the dilution factors, and the following calculation was applied to determine the mean log D value at pH 7.4 (log D(7.4)): […]

[2] = In vitro intrinsic clearance in human liver microsomes; assay type: in vitro ADME; conditions: for CLint scaled at 2 μM: human, read-out: HLM CLint
Procedure: Determination of In Vitro Intrinsic Clearance in Human Liver Microsomes:
Compounds were prepared as solutions in methanol. The final concentration of methanol in the incubation media was 0.2% (v/v). […] The total incubation volume was 1 mL. The reaction mixture was pre-warmed at 37° C. for 2 min before adding NADPH (1.2 mM). Aliquots (75 μL) of the reaction mixture at 0, 5, 10, 15, and 30 min were added to acetonitrile (200 μL) containing internal standard (terfenadine)(0.05 μg/mL), and the samples were centrifuged at 2500 g for 5 min prior to liquid chromatography/tandem mass spectrometry (LC/MS-MS) analysis of each compound using multiple reaction monitoring (MRM). For control experiments, NADPH was omitted from these incubations.
The microsomal half-life (t1/2) was obtained from a log-linear plot of the substrate depletion vs incubation time and was scaled to hepatic intrinsic clearance (CLint) using the following equation, in which the term t1/2 refers to the in vitro half-life: […]

[3] = molecular target: T1, human mu opioid receptor (hMOR) (Homo sapiens, UniProt P35372); test: Mu radioligand binding assay ([3H]diprenorphine, CHO cell membranes); conditions: read-out: hMOR binding assay Ki
T1 construct: expressed in transfected cells; host or cells: CHO cells
T1 sequence (P35372 whole entry): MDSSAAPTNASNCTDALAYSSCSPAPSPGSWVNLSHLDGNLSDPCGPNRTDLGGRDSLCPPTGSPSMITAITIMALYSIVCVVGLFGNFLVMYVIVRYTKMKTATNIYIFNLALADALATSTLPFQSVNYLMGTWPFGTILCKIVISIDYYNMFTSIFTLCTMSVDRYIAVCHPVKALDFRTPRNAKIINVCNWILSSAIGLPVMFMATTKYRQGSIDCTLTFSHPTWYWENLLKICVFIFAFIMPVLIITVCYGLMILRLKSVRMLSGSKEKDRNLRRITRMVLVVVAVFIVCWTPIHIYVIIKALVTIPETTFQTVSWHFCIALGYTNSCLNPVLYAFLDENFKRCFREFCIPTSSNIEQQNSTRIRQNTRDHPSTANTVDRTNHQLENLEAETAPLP
Outline: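 Membranes from CHO cells expressing human mu receptor were incubated 1 h at room temperature with [3H]diprenorphine (0.5 nM final) in Tris pH 7.4 buffer with EDTA and MgCl2; naltrexone (10 μM) defined non-specific binding. Filter-bound radioactivity was counted; Ki derived by Cheng-Prusoff from IC50.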

major CYP450 isozymes = test: CYP450 DDI cocktail assay (reversible inhibition, all isozymes together); assay type: in vitro ADME, human; conditions: for risk of reversible inhibition of CYP450 isozymes, in words: 3 μM; for >25% reversible inhibition of CYP activity at 3 μM (CYP): CYP450 DDI cocktail assay, isozymes inhibited in brackets
Procedure: Multi-Point Cocktail DDI IC50 Assay Conditions:
Standard marker activity substrates were incubated with pooled human liver microsomes (HL-MIX-102) in the presence of NADPH (1.2 mM) in 100 mM KH2PO4, pH 7.4 containing 3.3 mM MgCl2 at 37° C. The incubation volume was 0.1 mL, utilizing a 384-well plate format. The microsomal protein concentrations (0.1 mg/mL) and P450 concentration (0.035 μM) was used for each probe substrate at the following concentrations [tacrine (1A2) 2 uM; diclofenac (2C9) 5 μM; dextromethorphan (2D6) 5 μM; midazolam (3A4) 2 μM; taxol (2C8) 5 μM; S-mephenytoin (2C19) 40 μM]. Substrate concentrations were near Km values that had been previously determined and incubation times were selected based on determinations of reaction velocity linearity. Each test compound/prototypical inhibitors was tested at a concentration range of 0-30 μM in triplicate, in final vehicle solvent concentrations of 0.9% acetonitrile and 0.1% DMSO. Incubations were initiated with the addition of NADPH. At the end of the incubation period, termination solvent containing internal standard was added, the terminated incubation mixture was centrifuged to precipitate microsomal protein. Samples were directly injected on an HPLC-MS/MS system. A Biomek FX workstation was used for liquid handling and sample incubation.
Reversible CYP450 inhibitory potential for each compound was assessed using the CYP450 DDI cocktail assay, measuring the inhibition of the metabolism of a known probe substrate of each of the major CYP isozymes at 3 μM concentration.

HepG2 cells = test: HepG2_Glu ATP viability 72 hr; assay type: cell-based, human; conditions: for cytotoxicity in HepG2 cell line, in words: 72 hours, cellular ATP; for IC50: Homo sapiens, HepG2, glucose-supplemented media, ATP viability, 72 hour exposure, read-out: HepG2 Glu 72 hr
Procedure: This assay was run in a similar manner to the assay as described in Marroquin et al. Toxicological Sciences 97(2), 539-547 (2007) with a modification such that the instant assay was run for a 72 hour period as described below.
The aim of this assay was to measure cytotoxicity of a compound by measuring cell viability. […] The reagent used to quantify the ATP present was Promega Cell Titer-Glo. This reagent works by catalyzing luciferin by luciferase in the presence of Mg^2+, ATP, and molecular oxygen, thus emitting a luminescent signal, which was proportional to the amount of ATP present in the sample.
HepG2 cells grown in glucose-supplemented media were plated in 384 well plates at a density of 1000 cells/well for the 72 hour assay in a total medium volume of 25 μl/well. Plates were then incubated for 24 hours at 37° C., 95% humidity, and 5% CO2 before compound dosing.
After 24 hours to allow cells to attach to the plate, HepG2 cells were exposed to test compounds in an 11-point dose response format with a […], ranging from 300 uM to 0.029 uM for 72 hours. All compounds were tested in triplicate. Following the 72 hour exposure to test compounds, cell viability was determined by measuring the concentration of cellular ATP by adding Promega Cell Titer-Glo according to the manufacturer's directions. The plates were then read on a […] plate reader and data is analyzed using ActivityBase software.

[4] = pH 7.4, human liver microsomal intrinsic clearance
[5] = Table 19, geometric mean of 2-6 determinations unless otherwise indicated (Example 3: >=7)

logD [1]	CLint scaled at 2 μM [2, 4]	CLint scaled at 2 μM ([2]; pH 7.4, human liver microsomes)	Ki [3, 5]	>25% reversible inhibition of CYP activity at 3 μM (CYP) (major CYP450 isozymes)	IC50 (HepG2 cells)	SMILES	Log D, in words [1]	hepatic / metabolic clearance in human liver microsomes, in words [2]	Ki ([3]; Table 20, radioligand binding)	risk of reversible inhibition of CYP450 isozymes, in words (major CYP450 isozymes)	cytotoxicity in HepG2 cell line, in words (HepG2 cells)
1.4	8 mL/min/kg	< 20 mL/min/kg	46.2 nM	no	> 300000 nM	COc1nn(C)cc1[C@@H]1CCCN1Cc1ccc(Oc2ccc(C(N)=O)cc2)cc1 (single isomer, unassigned) [Example 12]	much more in line with drugs that progress to Phase II	surprisingly low intrinsic metabolic turnover rates	46 nM	no significant risk of reversible inhibition	little to no cytotoxicity
1.9	12 mL/min/kg	< 20 mL/min/kg	98.7 nM	no	> 300000 nM	COc1nn(C)cc1C1CCCN1Cc1ccc(Oc2ccc(C(N)=O)cc2F)cc1 (single isomer, unassigned; (-)) [Example 8, (−)-3-Fluoro-4-(4-{[2-(3-methoxy-1-methyl-1H-pyrazol-4-yl)pyrrolidin-1-yl]methyl}phenoxy)benzamide]	much more in line with drugs that progress to Phase II	surprisingly low intrinsic metabolic turnover rates	99 nM	no significant risk of reversible inhibition	little to no cytotoxicity
1.8	20 mL/min/kg	–	–	no	174000 nM	NC(=O)c1ccc(Oc2ccc(CN3CCC(c4ccccc4)C3)cc2)nc1 (centres unmarked) [Comparator A, reference compound]	–	–	0.1 nM	–	–
2.7	89 mL/min/kg	–	–	no	112000 nM	NC(=O)c1ccc(Oc2ccc(CN3CCCCC3c3ccccc3)cc2)nc1 (centres unmarked) [Comparator B]	–	high hepatic clearance	–	–	–
3.2	320 mL/min/kg	–	–	yes (2C8, 2C9,	72000 nM	NC(=O)c1ccc(Oc2ccc(CN3CCCC3c3cccnc3)cc2)c(Cl)c1 (centres unmarked) [Comparator C]	–	high hepatic clearance	21 nM	a risk for reversible DDI at CYP450 isozymes 2C8, 2C9, 3A4, and/or 2D6	–

SMILES	logD [1]	CLint scaled at 2 μM [2, 4]	CLint scaled at 2 μM ([2]; pH 7.4, human liver microsomes)	Ki [3, 5]	>25% reversible inhibition of CYP activity at 3 μM (CYP) (major CYP450 isozymes)	IC50 (HepG2 cells)	Log D, in words [1]	hepatic / metabolic clearance in human liver microsomes, in words [2]	Ki ([3]; Table 20, radioligand binding)	risk of reversible inhibition of CYP450 isozymes, in words (major CYP450 isozymes)	cytotoxicity in HepG2 cell line, in words (HepG2 cells)
NC(=O)c1ccc(Oc2ccc(CN3CCCC3c3ccccc3)cc2)nc1 (centres unmarked) [Comparator D]	2.3	45 mL/min/kg	–	–	yes (2D6)	69000 nM	–	–	163 nM	a risk for reversible DDI at CYP450 isozymes 2C8, 2C9, 3A4, and/or 2D6	–
Cc1cc(C)cc([C@@H]2CCCN2Cc2ccc(Oc3ccc(C(N)=O)cc3F)cc2)c1 [Comparator E, reference compound]	4.6	30 mL/min/kg	–	–	yes (2C8)	43000 nM	significantly higher Log D values	–	7.8 nM	a risk for reversible DDI at CYP450 isozymes 2C8, 2C9, 3A4, and/or 2D6	cytotoxicity at lower concentrations
NC(=O)c1ccc(Oc2ccc(CN3CCC[C@H]3c3cccc(F)c3)cc2)c(F)c1 [Comparator F]	3.7	36 mL/min/kg	–	–	no	56000 nM	significantly higher Log D values	–	37.5 nM	–	cytotoxicity at lower concentrations
Cc1nn(C)cc1[C@@H]1CCCN1Cc1ccc(Oc2ccc(C(N)=O)cc2)cc1 [Example 11, 4-(4-{[(2S)-2-(1,3-Dimethyl-1H-pyrazol-4-yl)pyrrolidin-1-yl]methyl}phenoxy)benzamide]	1.9	20 mL/min/kg	< 20 mL/min/kg	51 nM	no	267000 nM	much more in line with drugs that progress to Phase II	surprisingly low intrinsic metabolic turnover rates	51 nM	no significant risk of reversible inhibition	little to no cytotoxicity

Source: patent US10316021B2, “Heteroarylphenoxy benzamide kappa opioid ligands” (Pfizer Inc., priority 2016, dated 2019)
